Measured values published in PMC10892041, “Vanadium Complexes with Thioanilide Derivatives of Amino Acids: Inhibition of Human Phosphatases and Specificity in Various Cell Models of Metabolic Disturbances” (Pharmaceuticals, 2024).

Experiments:
[1] = tested on: hepatocytes HepG2; test: Inhibition of hepatic gluconeogenesis (glucose synthesis); settings: known inhibitors of gluconeogenesis; concentration not given
[2] = tested on: myocytes C2C12; test: Viability of myocytes C2C12 after 24 h incubation (resazurin-based reagent); settings: 50 µM
Description: Simultaneously with glucose consumption tests, the viability of myocytes C2C12 was examined due to their prolonged 24 h incubation with vanadium complexes.
Prolonged incubation of the cells with vanadium complexes, as was the case during the study of the effect on glucose consumption, more closely corresponds to the actual conditions of clinical use, also allowing for the identification of possible cytotoxic effects. […] A Resazurin-based reagent is reduced proportionally to the metabolic activity of cells as a result of the transference of electrons from NADPH+H^+, the amount of which strictly depends on glucose metabolism.

[3] = molecular target: T1, SHP1 (Homo sapiens, UniProt P29350); test: Inhibition of human recombinant tyrosine phosphatase SHP1 (DiFMUP fluorescence); assay type: biochemical; settings: 1 µM; control solvent only; SD did not exceed 6%
T1 construct: purchased Sigma-Aldrich
Description: (§1) To determine the ability of the tested compounds for inhibition tyrosine phosphatases, human recombinant proteins were used (Sigma-Aldrich). The reactions were performed in black opaque 384-well microplates (PerkinElmer, Waltham, MA, USA). An equal volume of phosphatase solution in a reaction buffer (25 mM of 3-(N-morpholino)propanesulfonic acid (MOPS), 50 mM NaCl, 1 mM dithiothreitol (DTT), and 0.05% Tween-20 (pH 7.0)) was added to the solution of the tested compound on microplate. These solutions were dispensed using an automated injector. The following final concentrations of the tested phosphatases were used: PTP1B 50 ng/mL, SHP1 400 ng/mL, SHP2 50 ng/mL, LAR 5 ng/mL, and PTPRA 100 ng/mL. After 10 min, a solution of phosphate 6,8-difluoro-4-methyl (DiFMUP; Thermo Fisher Scientific) was added until its final concentration was 0.1 mM. Samples were incubated for 20 miN at 23 °C, and then the measurements of fluorescence intensity (excitation 355 and emission […]) were performed on a multifunctional plate reader POLARstar Omega (BMG Labtech, Ortenberg, Germany). Assays were performed in triplicate. For the screening assays, the final concentration of the tested compounds was 1 µM. The results were expressed as percent inhibition of untreated control (enzyme with vehicle only) for the screening tests. […] IC50 were calculated using GraphPad Prism version 6.0 software (GraphPad Software, Boston, MA, USA).

[4] = molecular target: T2, SHP2 (Homo sapiens, UniProt Q06124); test: Inhibition of human recombinant tyrosine phosphatase SHP2 (DiFMUP fluorescence); assay type: biochemical; settings: 1 µM; control solvent only; SD did not exceed 6%
T2 construct: purchased Sigma-Aldrich
T2 sequence (Q06124 1-593): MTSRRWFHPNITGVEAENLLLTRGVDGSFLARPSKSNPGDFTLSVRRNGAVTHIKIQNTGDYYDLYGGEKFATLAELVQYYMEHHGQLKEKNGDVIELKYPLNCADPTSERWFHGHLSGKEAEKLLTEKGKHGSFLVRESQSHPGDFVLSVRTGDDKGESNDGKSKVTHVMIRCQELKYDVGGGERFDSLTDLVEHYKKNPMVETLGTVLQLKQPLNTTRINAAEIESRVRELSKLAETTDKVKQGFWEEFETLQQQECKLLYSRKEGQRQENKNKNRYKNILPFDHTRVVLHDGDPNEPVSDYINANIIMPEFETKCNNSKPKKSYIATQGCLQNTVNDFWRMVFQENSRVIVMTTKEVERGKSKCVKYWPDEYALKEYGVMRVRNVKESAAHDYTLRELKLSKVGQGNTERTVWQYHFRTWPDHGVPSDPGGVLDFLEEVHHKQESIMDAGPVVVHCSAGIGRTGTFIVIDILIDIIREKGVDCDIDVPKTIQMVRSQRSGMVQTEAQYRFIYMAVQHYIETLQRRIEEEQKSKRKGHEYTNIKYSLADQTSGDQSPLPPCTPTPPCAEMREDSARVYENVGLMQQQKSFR
Description: as §1

[5] = molecular target: T3, PTP1B (Homo sapiens, UniProt P18031); test: Inhibition of human recombinant tyrosine phosphatase PTP1B (DiFMUP fluorescence); assay type: biochemical; settings: 1 µM; control solvent only; SD did not exceed 6%
T3 construct: purchased Sigma-Aldrich
T3 sequence (P18031 1-435): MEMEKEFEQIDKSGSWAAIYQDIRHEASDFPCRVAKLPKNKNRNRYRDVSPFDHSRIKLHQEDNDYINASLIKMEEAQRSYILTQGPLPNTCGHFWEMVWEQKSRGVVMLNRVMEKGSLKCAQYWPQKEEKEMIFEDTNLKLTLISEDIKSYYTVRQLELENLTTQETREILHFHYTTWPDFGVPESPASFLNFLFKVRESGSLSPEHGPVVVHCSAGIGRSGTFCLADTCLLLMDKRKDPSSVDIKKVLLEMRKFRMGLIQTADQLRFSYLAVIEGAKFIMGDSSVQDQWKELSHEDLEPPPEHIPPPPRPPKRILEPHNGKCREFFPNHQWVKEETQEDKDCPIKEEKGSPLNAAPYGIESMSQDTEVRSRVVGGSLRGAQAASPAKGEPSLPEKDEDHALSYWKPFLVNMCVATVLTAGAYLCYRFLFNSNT
Description: as §1

[6] = tested on: myocytes C2C12; test: Glucose consumption (utilization) by myocytes C2C12; assay type: cell-based, mouse; settings: 50 µM (highest tested concentration); 24 h
Description: The myocyte C2C12 cell line (ATCC CRL-1772), a subclone of myoblasts from mouse muscles, was cultured according to standard protocol in DMEM supplemented with 10% fetal calf serum, 100 IU/ml penicillin, and […] streptomycin at 37 °C in 5% CO2. Cells were pleated on a 96-well microplate and after reach confluence were differentiated in medium with 2% horse serum. Differentiation medium was changed every 72 h.
Differentiated myocytes C2C12 were used after 8 days of differentiation. The culture medium was changed for medium with 0.2% bovine serum albumin, 100 IU/mL penicillin, and 100 µg/mL streptomycin, and after 2 hours of incubation, the medium was changed to fresh medium containing the tested compounds. […]
Glucose concentration was determined based on enzymatic reaction with glucose oxidase and fluorometrically detection reaction end product using an AmplexRed Glucose/Glucose Oxidase Kit (Thermo Fisher Scientific) according to the manufacturer’s protocol. […] Fluorescence signal was measured at excitation of 530 nm and emission of 580 nm using a multimodal microplate reader POLARStar Omega (BMG Labtech), and glucose concentration in samples was calculated in MARS Data Analysis Software version 3.02.R2 (BMG Labtech) based on glucose standards. […] The final results were expressed as the percent of controls containing cells and solvent only.

[7] = molecular target: T4, LAR (Homo sapiens, UniProt P10586); test: Inhibition of human recombinant tyrosine phosphatase LAR (DiFMUP fluorescence); assay type: biochemical; settings: 1 µM; control solvent only; SD did not exceed 6%
T4 sequence (P10586 1352-1607 limits assumed): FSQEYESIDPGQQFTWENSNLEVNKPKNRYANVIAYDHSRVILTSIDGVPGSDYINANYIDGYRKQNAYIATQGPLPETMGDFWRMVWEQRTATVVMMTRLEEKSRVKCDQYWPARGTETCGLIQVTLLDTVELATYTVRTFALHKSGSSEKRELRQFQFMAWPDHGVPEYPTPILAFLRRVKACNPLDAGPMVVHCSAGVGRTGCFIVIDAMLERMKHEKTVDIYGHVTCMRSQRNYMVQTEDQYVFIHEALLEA
Description: as §1

T1 sequence (P29350 whole entry): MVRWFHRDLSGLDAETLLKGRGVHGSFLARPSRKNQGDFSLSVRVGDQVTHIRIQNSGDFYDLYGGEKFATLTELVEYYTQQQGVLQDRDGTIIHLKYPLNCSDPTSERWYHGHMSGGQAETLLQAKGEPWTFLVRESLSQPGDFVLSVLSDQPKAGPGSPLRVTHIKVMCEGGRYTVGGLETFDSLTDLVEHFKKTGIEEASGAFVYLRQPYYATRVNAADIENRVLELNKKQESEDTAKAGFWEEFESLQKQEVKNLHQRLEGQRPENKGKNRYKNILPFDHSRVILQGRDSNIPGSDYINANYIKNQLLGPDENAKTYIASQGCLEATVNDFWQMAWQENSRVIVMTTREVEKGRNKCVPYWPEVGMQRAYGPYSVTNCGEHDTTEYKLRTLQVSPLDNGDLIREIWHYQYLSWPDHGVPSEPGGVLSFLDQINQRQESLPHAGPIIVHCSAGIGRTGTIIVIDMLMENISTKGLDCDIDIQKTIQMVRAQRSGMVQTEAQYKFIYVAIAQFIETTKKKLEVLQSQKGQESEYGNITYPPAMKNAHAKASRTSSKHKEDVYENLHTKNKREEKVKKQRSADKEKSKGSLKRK

SMILES	Inhibition of glucose synthesis by hepatocytes, experimental control compounds [1]	Cell viability of myocytes C2C12, % of the control [2]	Inhibition of SHP1, percentage of inhibition of the control [3]	Inhibition of SHP2, percentage of inhibition of the control [4]	Inhibition of PTP1B, percentage of inhibition of the control [5]	Glucose consumption by myocytes C2C12, % of the control [6]	Inhibition of LAR, percentage of inhibition of the control [7]
NC(=O)c1ncn([C@@H]2O[C@H](CO)[C@@H](O)[C@H]2O)c1N [AICAR, 5-aminoimidazole-4-carboxamide riboside]	showed inhibition of glucose synthesis	–	–	–	–	–	–
COc1ccc(C(=O)NN=Cc2cc(Br)ccc2[O][V]2[O]C(c3ccc(OC)cc3)=NN=Cc3cc(Br)ccc3[O]2)cc1 [VC055, [V(L11)(HL11)]]	–	127 ± 5%	56%	57%	24%	No statistically significant effect	18%
